According to ChEMBL document CHEMBL1921727, “Stereoselective synthesis of (RP)-8-substituted-N⁶-acylated and N⁶-alkylated adenosine-3',5'-cyclic phosphorothioic acids as cAMP antagonists” (Eur J Med Chem, 2011):
Activity calls are given as the source filed them. No cut-off for these calls is given here.

How the values were obtained:
T-cell [1] = experiment: Induction of PKA activation in human CD3-positive T cells assessed as increase of cell proliferation after 72 hrs by [H]thymidine incorporation assay; format: cell-based
T-cell [2] = experiment: Antagonist activity at PKA in human CD3-positive T cells assessed as inhibition of cell proliferation after 72 hrs by [H]thymidine incorporation assay; format: functional, cell-based
[3] = Antagonist activity at PKA in human CD3-positive T cells assessed as inhibition of cell proliferation after 72 hrs by [H]thymidine incorporation assay relative to (RP)-8-Br-cAMPS; format: functional
[4] = Cytotoxicity against human CD3-positive T cells assessed as [H]thymidine incorporation after 72 hrs by beta scintillation counting; format: cell-based; conditions: t-cell
T-cell [5] = experiment: Induction of PKA activation in human CD3-positive T cells assessed as increase of cell proliferation after 72 hrs by [H]thymidine incorporation assay relative to (SP)-8-Br-cAMPS; format: cell-based

SMILES: CN(C)c1ncnc2c1nc(-c1ccco1)n2[C@@H]1O[C@@H]2COP(=O)([S-])O[C@H]2[C@H]1O.[Na+] (stereo not given in full)
- Activity (T-cell [1]): Active
- Inhibition of cell proliferation (active/not active) (T-cell [2]): inactive
- Ratio [3]: 0.1
- Activity [4]: Non-toxic

SMILES: CCCCNc1ncnc2c1nc(-c1ccco1)n2[C@@H]1O[C@@H]2COP(=O)(S)O[C@H]2[C@H]1O (stereo not given in full)
- Activity (T-cell [1]): Active
- Inhibition of cell proliferation (active/not active) (T-cell [2]): Active
- Ratio [3]: 0.53
- Activity [4]: Non-toxic

SMILES: CNc1ncnc2c1nc(-c1ccco1)n2[C@@H]1O[C@@H]2COP(=O)([S-])O[C@H]2[C@H]1O.[Na+] (stereo not given in full)
- Activity (T-cell [1]): Active
- Inhibition of cell proliferation (active/not active) (T-cell [2]): Active
- Ratio [3]: 0.2
- Activity [4]: Non-toxic

SMILES: CCCNc1ncnc2c1nc(-c1ccco1)n2[C@@H]1O[C@@H]2COP(=O)(S)O[C@H]2[C@H]1O (stereo not given in full)
- Activity (T-cell [1]): Active
- Inhibition of cell proliferation (active/not active) (T-cell [2]): Active
- Ratio [3]: 0.24
- Activity [4]: Non-toxic

SMILES: O=P1([S-])OC[C@H]2O[C@@H](n3c(-c4ccco4)nc4c(NCc5ccccc5)ncnc43)[C@H](O)[C@@H]2O1.[Na+] (stereo not given in full)
- Activity (T-cell [1]): inactive
- Ratio (T-cell [5]): 0.99
- Inhibition of cell proliferation (active/not active) (T-cell [2]): inactive
- Activity [4]: Non-toxic
